Experimental data from PMC9112895, “Selective Inhibition of Plasmodium falciparum ATPase 6 by Artemisinins and Identification of New Classes of Inhibitors after Expression in Yeast” (Antimicrobial Agents and Chemotherapy, 2022).

What was measured:
Assay type in all cases: cell-based
A623E PfATP6 = biological target: T1, A623E PfATP6 (Plasmodium falciparum, UniProt Q08853, A623E); experiment: Yeast whole-cell assay, PfATP6 A623E mutant; settings: read-out: IC50 (mean ± SD)
T1 construct: expressed in transfected cells; host or cells: Saccharomyces cerevisiae K667-derived strain
T1 sequence (Q08853 1-1228 A623E): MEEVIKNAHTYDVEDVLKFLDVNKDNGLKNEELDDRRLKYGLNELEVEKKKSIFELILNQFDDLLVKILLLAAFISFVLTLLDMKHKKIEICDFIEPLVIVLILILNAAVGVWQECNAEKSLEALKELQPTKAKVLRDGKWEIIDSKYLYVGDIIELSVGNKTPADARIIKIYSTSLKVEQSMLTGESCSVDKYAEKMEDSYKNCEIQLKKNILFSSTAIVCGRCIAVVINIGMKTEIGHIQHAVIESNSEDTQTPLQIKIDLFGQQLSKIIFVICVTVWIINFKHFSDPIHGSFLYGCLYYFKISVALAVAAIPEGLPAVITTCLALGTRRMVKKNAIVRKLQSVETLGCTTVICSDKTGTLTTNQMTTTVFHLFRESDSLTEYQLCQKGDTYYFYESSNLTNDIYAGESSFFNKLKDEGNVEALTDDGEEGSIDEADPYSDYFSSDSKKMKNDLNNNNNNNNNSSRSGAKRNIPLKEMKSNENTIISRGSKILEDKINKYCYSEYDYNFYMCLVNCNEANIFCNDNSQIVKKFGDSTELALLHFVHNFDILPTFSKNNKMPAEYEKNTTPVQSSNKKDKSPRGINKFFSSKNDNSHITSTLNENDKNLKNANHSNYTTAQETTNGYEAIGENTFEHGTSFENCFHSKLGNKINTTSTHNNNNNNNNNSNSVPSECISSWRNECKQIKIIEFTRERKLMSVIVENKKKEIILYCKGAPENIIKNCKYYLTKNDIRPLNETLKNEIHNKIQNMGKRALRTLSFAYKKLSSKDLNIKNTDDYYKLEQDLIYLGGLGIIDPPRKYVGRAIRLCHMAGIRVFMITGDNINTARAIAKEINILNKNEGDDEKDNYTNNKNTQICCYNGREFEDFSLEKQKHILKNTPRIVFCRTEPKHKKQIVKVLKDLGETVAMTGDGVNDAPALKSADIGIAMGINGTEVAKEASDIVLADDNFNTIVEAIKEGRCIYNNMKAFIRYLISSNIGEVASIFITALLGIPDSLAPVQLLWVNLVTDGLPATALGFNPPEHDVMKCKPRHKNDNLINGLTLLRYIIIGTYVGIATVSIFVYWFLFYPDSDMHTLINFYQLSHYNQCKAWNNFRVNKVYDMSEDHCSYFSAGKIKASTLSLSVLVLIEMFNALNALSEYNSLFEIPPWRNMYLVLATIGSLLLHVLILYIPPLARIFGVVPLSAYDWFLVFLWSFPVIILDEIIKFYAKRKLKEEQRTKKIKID
Experimental: Yeast transformations were performed using the method described by Gietz and Schiestl ([48]), and transformants were selected by an uracil auxotrophic marker. Transformations were confirmed by colony PCR. Both K667 and K667Δpdr5::HIS were transformed with the following plasmids: pUGpd plasmid as a vector-only control (derived from pRS316 [49]); br434 plasmid (derived from pRS316 [50]) containing the SERCA1a coding region from rabbit skeletal fast-twitch muscle (pbr434-SERCA1a); and pUGpd containing the yeast-optimized coding region of PfATP6 from Plasmodium falciparum (pUGpd-PfATP6). Site-directed mutagenesis was performed on the SERCA1a coding region to produce the mutation E255L in the protein. Mutations were also introduced into the PfATP6 coding region to produce mutations L263E, A623E, and S769N and the double mutation A623E/S769N ([13]).
The screening assay used here was developed from the protocol used by Pulcini et al. ([13]). […] The optimal calcium concentration was periodically monitored and, if necessary, adjusted using a calcium concentration range of 10 to 30 mM. […] The yeast growth was estimated from the absorbance at 620 nm in a Tecan plate reader. […] The data collected were analyzed using GraphPad Prism v9.0 (GraphPad software, San Diego, CA, U.S.A).

PfATP6 [1] = biological target: T2, PfATP6 (Plasmodium falciparum, UniProt Q08853); experiment: Yeast whole-cell growth inhibition (functional rescue) assay, K667[PfATP6]; set-up: pUGpd containing the yeast-optimized coding region of PfATP6 from Plasmodium falciparum; expressed in transfected cells; host or cells: Saccharomyces cerevisiae K667 and K667Δpdr5::HIS
Experimental: (§1) The screening assay used here was developed from the protocol used by Pulcini et al. ([13]). A single colony of the yeast strain to be screened was picked and grown in 5 mL of selective medium until stationary phase was reached. The culture was diluted 100-fold in ampicillin-supplemented yeast extract-peptone-dextrose (YPD) medium to an OD at 620 nm (OD620) equivalent to that of lag phase. YPD medium was supplemented with an appropriate concentration of calcium, depending on the transformed strain. […] The optimal calcium concentration was periodically monitored and, if necessary, adjusted using a calcium concentration range of 10 to 30 mM. A final volume of 200 μL of the yeast culture was added to each well of a 96-well plate, with 5 technical replicates included per inhibitor. All inhibitors were dissolved in dimethyl sulfoxide (DMSO) unless otherwise stated. […] The 96-well plates were incubated at 30°C for 42 h. The yeast growth was estimated from the absorbance at 620 nm in a Tecan plate reader. Growth was normalized with the no-drug control to present data as percent growth. The data collected were analyzed using GraphPad Prism v9.0 (GraphPad software, San Diego, CA, U.S.A).

PfATP6 [2] = biological target: T2, PfATP6; experiment: cell-based; set-up: pUGpd containing the yeast-optimized coding region of PfATP6 from Plasmodium falciparum; expressed in transfected cells; host or cells: Saccharomyces cerevisiae K667 and K667Δpdr5::HIS
Experimental: as §1

T2 sequence (Q08853 whole entry): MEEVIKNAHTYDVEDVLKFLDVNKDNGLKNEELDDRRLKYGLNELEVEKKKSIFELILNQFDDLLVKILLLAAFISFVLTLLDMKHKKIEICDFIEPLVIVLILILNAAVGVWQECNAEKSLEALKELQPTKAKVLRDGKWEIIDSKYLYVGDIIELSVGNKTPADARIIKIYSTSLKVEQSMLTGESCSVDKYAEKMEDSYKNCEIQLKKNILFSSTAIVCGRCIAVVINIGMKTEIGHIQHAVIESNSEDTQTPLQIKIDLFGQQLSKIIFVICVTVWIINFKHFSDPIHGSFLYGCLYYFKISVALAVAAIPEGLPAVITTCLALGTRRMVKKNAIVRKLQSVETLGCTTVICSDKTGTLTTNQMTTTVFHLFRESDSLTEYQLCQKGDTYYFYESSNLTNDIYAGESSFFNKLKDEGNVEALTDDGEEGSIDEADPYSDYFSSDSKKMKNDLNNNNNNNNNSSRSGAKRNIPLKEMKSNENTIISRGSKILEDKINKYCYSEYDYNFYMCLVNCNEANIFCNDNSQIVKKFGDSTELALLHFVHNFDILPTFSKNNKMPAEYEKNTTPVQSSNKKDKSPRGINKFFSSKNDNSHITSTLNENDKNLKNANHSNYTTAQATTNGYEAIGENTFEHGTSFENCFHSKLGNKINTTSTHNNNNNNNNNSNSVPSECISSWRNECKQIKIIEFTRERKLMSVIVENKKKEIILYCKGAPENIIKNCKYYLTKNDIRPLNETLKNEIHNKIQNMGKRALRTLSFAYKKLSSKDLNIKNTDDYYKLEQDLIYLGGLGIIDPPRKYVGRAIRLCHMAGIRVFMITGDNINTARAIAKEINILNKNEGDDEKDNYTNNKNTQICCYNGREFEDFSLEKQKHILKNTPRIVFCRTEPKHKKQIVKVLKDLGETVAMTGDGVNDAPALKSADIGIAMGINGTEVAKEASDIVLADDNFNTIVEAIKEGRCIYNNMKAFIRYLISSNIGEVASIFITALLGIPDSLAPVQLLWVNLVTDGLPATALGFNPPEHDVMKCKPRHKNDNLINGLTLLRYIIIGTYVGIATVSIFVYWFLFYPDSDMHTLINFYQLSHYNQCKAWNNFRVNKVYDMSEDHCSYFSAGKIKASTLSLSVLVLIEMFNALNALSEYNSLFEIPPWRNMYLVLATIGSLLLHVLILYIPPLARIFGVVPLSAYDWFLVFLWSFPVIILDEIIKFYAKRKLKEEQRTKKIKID

SMILES: CC(=O)C1=C(O)[C@@H]2[C@H]3c4c[nH]c5cccc(c45)C[C@H]3C(C)(C)N2C1=O [CPA, cyclopiazonic acid]
- IC50 (A623E PfATP6): 5.86 µM
- IC50 (PfATP6 [1]): 11.6 µM
- approximate IC10 (PfATP6 [2]; fitness cost assays, drug pressure): ~5 µM
- IC80 (PfATP6 [2]; read-out: approximate yeast IC80): ~5 µM
